Where a chain is given by its changes, count along the chain named. Entries after “also recorded” stand apart in the source; their conditions may differ.
Assays:
Plasmodium falciparum = settings: read-out: IC50 (competitive inhibitor); cited from earlier work
WT-PAH [1] = target: T1, WT-PAH (Homo sapiens, UniProt P00439); assay: Chaperone (refolding) assay: PAH activity after dilution from 6.0 M to 0.5 M GndCl; assay type: biochemical; settings: for chaperone activity upon refolding (in words): ligand 20 μM
T1 construct: made in house; the paragraph itself says 'eukaryotic cell cultures' (pMAL vector, Martinez laboratory, University of Bergen)
T1 sequence (P00439 1-452): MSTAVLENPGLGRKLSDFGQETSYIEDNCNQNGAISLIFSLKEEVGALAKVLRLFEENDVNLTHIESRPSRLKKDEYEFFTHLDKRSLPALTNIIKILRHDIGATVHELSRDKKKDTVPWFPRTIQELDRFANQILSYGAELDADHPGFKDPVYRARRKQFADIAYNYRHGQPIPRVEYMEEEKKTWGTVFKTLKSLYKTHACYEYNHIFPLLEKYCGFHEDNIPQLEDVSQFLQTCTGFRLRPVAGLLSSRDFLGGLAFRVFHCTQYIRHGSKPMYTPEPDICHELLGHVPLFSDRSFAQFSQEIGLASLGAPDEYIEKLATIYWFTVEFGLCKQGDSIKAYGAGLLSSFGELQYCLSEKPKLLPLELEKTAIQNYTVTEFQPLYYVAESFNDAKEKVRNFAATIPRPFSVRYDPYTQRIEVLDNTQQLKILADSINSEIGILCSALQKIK
Description: (§1) For instance, a recovery of 50% of residual enzyme activity was achieved without ligand when PAH was incubated in 8.0 M urea after its dilution to 0.5 M urea to trigger protein refolding. In order to further reduce enzyme reversibility, the recovery of PAH activity was subsequently assessed when it was incubated using 6.0 M GndCl for 10 min and subsequently diluted to 0.5 M GndCl in the presence or absence of screen-positive ligands (20 μM) in enzyme reaction buffer with PAH activity measurements performed by CE as described previously. […] Two lead compounds and several analogs of SA were subsequently tested using two different mutants of PAH (I65T and R261Q) without chemical denaturants after the two-tiered screening.

beta-amyloid peptide = settings: cited from earlier work
WT-PAH [2] = target: T1, WT-PAH; assay: Primary screen (READ): ligand-induced stabilization of PAH activity in 8 M urea, Tyr formation by CE-UV; assay type: biochemical; settings: ligand 20 μM; for stabilization / enhancement effect on PAH activity (in words): denaturing conditions
Description: (§2) Tetrameric human phenylalanine hydroxylase (PAH) enzyme kinetic assays were performed off-line under standardized conditions prior to quantification of Tyr formation by CE with UV detection. Enzyme assays were performed by first mixing together Phe (1 mM), catalase (100 nM) and PAH (0.25 μM/subunit) in a reaction buffer (20 mM HEPES and 200 mM NaCl, pH 7.0) that were equilibrated at 25° C. for 4 min. Then, ferrous (Fe^2+) ammonium sulfate (100 μM) was added to the solution for 1 min and the reaction was subsequently initiated by addition of BH4 ([…]) with DTT (5 mM) using a total volume of 100 μL. The reaction mixture was then vortexed for 60 s followed by sonication for 2 min prior to centrifugation for 10 s at 4 g and storage in a refrigerator (+4° C.). An aliquot (20 μL) was withdrawn from the quenched enzyme reaction and placed in a micro vial containing Me-Tyr as IS (100 μM) prior to CE analysis. The stability of the quenched enzyme reaction was confirmed by intermittent analysis of PAH activity over 6 h at room temperature, and no significant changes in the Tyr/IS or Phe/Tyr response ratio were measured. Enzymatic reactions were performed for both WT-PAH and two PAH mutants by pre-equilibrating each ligand for 10 min prior to addition of ferrous ion and BH4/DDT as described in enzyme reaction protocol in order to assess for ligand-induced PAH inhibition or activation.
Unlike thermal stability assays that can induce protein aggregation, chemical denaturants are more suitable as perturbants to promote unfolding and enzyme inactivation while solubilizing multimeric proteins. In this context, restoration of enzyme activity upon denaturation (READ) was first introduced to characterize PCs that stabilize yet enhance the activity of a lysosomal enzyme, β-glucocerebrosidase (GCase). Herein, READ was modified, further optimized and validated for primary screening of PCs for the cytosolic enzyme (PAH) using a chemical library containing structurally unique compounds with drug-like activity. For instance, the primary screen was used to measure ligand-induced stabilization of PAH by extrinsic small molecules that impart greater resistance to urea unfolding as compared to ligand-free apo-enzyme conditions. PAH activity was first examined as a function of urea concentration (0 to 8 M) and pre-equilibration time (10 min to 2 hr) in order to determine optimum conditions where residual enzyme activity was largely attenuated below 10% due to protein unfolding. Protein unfolding was performed in triplicate offline with the enzyme reaction buffer (20 mM HEPES and 200 mM NaCl, pH 7.0) using tetrameric human PAH (1 μM and/or 0.1 μM) or mutant PAH (1 μM and/or 0.1 μM) incubated 10 min in 0 M or 8 M urea in the presence or absence of ligand (20 μM). Dose-response studies (0, 2.0 and 20 μM) were subsequently performed in triplicate on screen-positive compounds using re-synthesized ligands in order to further validate initial screen results. In all cases, quenched enzyme reactions were processed as described previously prior to CE analysis. PAH activity measurements based on Tyr formation at 8M urea with the presence or absence of PC were normalized to 0 M urea for each aliquot enzyme reaction to minimize long-term variation, which also enables direct comparison of the ligand-induced stabilization activity under denaturing conditions (8M urea) while confirming inhibition and activation effects for ligands under native conditions (0 M urea).

WT-PAH [3] = target: T1, WT-PAH; assay: PAH enzyme activity under native conditions (0 M urea), ligand-induced inhibition or activation; assay type: biochemical; settings: ligand 20 μM
Description: as §2, with “An aliquot (20 μL) was withdrawn from the quenched enzyme reaction and placed in a micro vial containing Me-Tyr as IS (100 μM) prior to CE analysis.” left out, “Enzymatic reactions were performed for both WT-PAH and two PAH mutants by pre-equilibrating each ligand for 10 min prior to addition of ferrous ion and BH4/DDT as described in enzyme reaction protocol in order to assess for ligand-induced PAH inhibition or activation.” left out
Unlike thermal stability assays that can induce protein aggregation, chemical denaturants are more suitable as perturbants to promote unfolding and enzyme inactivation while solubilizing multimeric proteins. In this context, restoration of enzyme activity upon denaturation (READ) was first introduced to characterize PCs that stabilize yet enhance the activity of a lysosomal enzyme, β-glucocerebrosidase (GCase). […]

R261Q PAH mutant = target: T2, R261Q PAH mutant (Homo sapiens, UniProt P00439, R261Q); assay: PKU-mutant activity enhancement without chemical denaturants, CE-UV; assay type: biochemical; settings: ligand 20 μM, no denaturant
T2 construct: made in house; the paragraph itself says 'eukaryotic cell cultures' (pMAL vector)
T2 sequence (P00439 1-452 R261Q): T1 sequence (P00439 1-452) with R261Q
Description: Expression of recombinant human WT-PAH and two PAH mutants ([…]) as fusion protein with maltose-binding protein in […] using pMAL expression vector was performed by the Martinez laboratory at the University of Bergen as described in Svebak et al., Biochem. J., 1995, 306, 589-597. Briefly, purification of the fusion proteins expressed in the pMAL vector system was performed using affinity chromatography followed by size-exclusion chromatography to remove low molecular weight components. Subsequently, the fusion proteins were cleaved by the restriction protease factor Xa and then phosphorylated by cyclic adenosine monophosphate (cAMP)-dependent protein kinase. The two clinically relevant PAH mutants, I65T and R261Q comprise single-point mutations in the regulatory and catalytic domain, respectively which are associated with highly variable phenotypes ranging from mild to classical PKU. For instance, patients with R261Q genotypes are reported to have inconsistent responses to BH4 therapy. In this work, I65T and R261Q PAH mutants were measured to have residual catalytic activities of (35±1)% and (5±0.5)% relative to WT PAH under standardized conditions (i.e., enzyme concentrations, assay buffer etc.), respectively. Stock solutions of WT-PAH and PAH mutants were prepared in enzyme reaction buffer (20 mM HEPES pH 7.0, 200 mM NaCl), and divided into separate 10 μL aliquots in 0.5 mL sterilized centrifuge tubes prior to storage at −80° C. Note that all enzyme assays were performed on aliquots of frozen enzymes thawed slowly in the fridge prior to daily use.
as §2, §1

Row | chaperone activity upon refolding (in words) (WT-PAH [1]) | stabilization / enhancement effect on PAH activity (in words) (WT-PAH [2]) | SMILES | also measured
1 | abolishes the chaperone activity | – | O=C(O)C1=CC(=O)[C@@H](O)[C@H](O)C1 [DSA, 3-dehydroshikimic acid] | –
2 | abolishes the chaperone activity | – | CCOC(=O)C1=C[C@@H](O)[C@@H](O)[C@H](O)C1 [ESA, ethoxyshikimate] | –
3 | significantly restored | – | O=C(O)C1=C[C@@H](O)[C@@H](O)[C@H](O)C1 [SA, (3R,4S,5R)-3,4,5-trihydroxycyclohex-1-ene-1-carboxylic acid] | inhibition or activation of WT-PAH under native conditions (in words) (WT-PAH [3]): weak activation effects; also recorded: lack of SA inhibitory effects; activity enhancement of R261Q PAH mutant (R261Q PAH mutant): 3-5 fold; activity enhancement of R261Q PAH mutant (R261Q PAH mutant; listed as HCH): 5 fold; PAH residual activity (% of WT-PAH) (WT-PAH [2]; 8 M urea, ligand-free enzyme (7±0.5) %): 16%; residual activity of WT-PAH after refolding (WT-PAH [1]; without ligand (7±0.5) %): ~38±2%
4 | – | no enhancement effect | OC[C@H]1CNC[C@@H](O)[C@@H]1O [isofagomine] | –
5 | – | no significant activity | O[C@H]1[C@H](O)[C@@H](O)[C@H](O)[C@@H](O)[C@H]1O [myo-inositol] | –

More lines, now with the values behind:

Row | SMILES | chaperone activity upon refolding (in words) (WT-PAH [1]) | stabilization / enhancement effect on PAH activity (in words) (WT-PAH [2]) | also measured
6 | O=C(O)C1=CC(O)C(O)C(O)C1F (stereo not drawn) [6-fluoro-shikimate] | – | – | IC50 (Plasmodium falciparum): 15 µM
7 | O=C(O)c1cc(O)c(O)c(O)c1 [GA, gallic acid] | destabilizes and reduces the activity of WT-PAH upon refolding | – | oligomerization of beta-amyloid peptide (in words) (beta-amyloid peptide): inhibits oligomerization of beta-amyloid peptide
8 | O=C(O)C1(O)C[C@@H](O)C(O)[C@H](O)C1 (stereo partly drawn) [QA, D-quinic acid] | significantly restored; also recorded: chaperone activity | exhibits PAH stabilization | –
9 | Nc1c(Br)cc(Br)cc1CN[C@H]1CC[C@H](O)CC1 [ambroxol] | – | no enhancement effect | –
10 | COc1ccc([C@@H]2Sc3ccccc3N(CCN(C)C)C(=O)[C@@H]2OC(C)=O)cc1 [diltiazem] | – | no enhancement effect | –
11 | OCCN1CCN(CCCN2c3ccccc3Sc3ccc(C(F)(F)F)cc32)CC1 [fluphenazine] | – | no enhancement effect | –

Reference: patent publication US10426751B2, “Allosteric activators for treatment of phenylketonuria” (MCMASTER UNIVERSITY, priority 2015, dated 2019)
